# Literature values, collected in US20050074443A1, “Methods of attenuating autoimmune disease and compositions useful therefor” (priority 2003, published 2005).
# Test system: experimental autoimmune encephalomyelitis
# Conditions: exogenous administration, mouse model
smiles,measurement,value
"C=C1/C(=C\C=C2/CCC[C@]3(C)[C@@H]([C@H](C)CCCC(C)(C)O)CC[C@@H]23)C[C@@H](O)C[C@@H]1O [1,25-dihydroxyvitamin D3]",effect on experimental autoimmune encephalomyelitis,can prevent experimental autoimmune encephalomyelitis
